# According to US11958821B2, “Phenethylamine compounds salts, polymorphic forms and methods of use thereof” (Terran Biosciences Inc., priority 2021, dated 2024):
# Key:
# [1] = tested on: participants diagnosed with at least moderate post-traumatic stress disorder (PTSD); assay: Double-blind, randomized, placebo-controlled clinical trial of MBDB-assisted psychotherapy in PTSD; assay type: in vivo, human; conditions: for Change in CAPS-5 assessment: Study Conclusion, hydrochloride salt with psychotherapy; for Change in CAPS-5 assessment / Clinician-rated functional impairment score (SDS) / Depression (HAM-D): vs placebo; for Daytime sleepiness (ESS): human, in vivo; for Total dosage of drug to achieve significant mean reduction in CAPS-5: vs racemic MBDB-treated subgroup
# Description: A multicenter, randomized, double-blind, placebo-controlled trial is conducted to assess the efficacy and safety of MBDB-assisted psychotherapy versus psychotherapy with placebo control in participants diagnosed with at least moderate post-traumatic stress disorder (PTSD).
# This multicenter, randomized, double-blind, placebo-controlled trial is conducted at various sites in the United States with IRB approval from each study site. A flexible dose of MBDB hydrochloride salt or placebo, followed by a supplemental half-dose unless contraindicated by patient's previous response or medical history, is also administered during the Treatment Period with psychotherapy in at least 3 blinded monthly Experimental Sessions. The Supplemental Dose extends the duration of drug effects on the participants during an Experimental Session. MBDB test groups are further subdivided into specific groups receiving only racemic MBDB hydrochloride salt, S-MBDB hydrochloride salt, or R-MBDB hydrochloride salt. An optional Risk Evaluation and Mitigation Strategy (REMS) Protocol may be implemented for the racemic MBDB, S-MBDB, R-MBDB, and placebo-groups. The Treatment Period lasts for approximately 12 weeks. During the Treatment Period, each Experimental Session is followed by three Intervening Sessions of non-drug psychotherapy. Each Experimental Session involves an overnight stay. The Primary Outcome measure, the change in Clinician Administered PTSD Scale for DSM-5 (CAPS-5), is determined by a blinded Independent Rater (IR) pool multiple times throughout the study. The study consists of separate periods for each participant. Initially, prospective participants undergo a Screening Period involving an initial eligibility assessment, a medical history intake, informed consent, and enrollment of eligible participants. Next, a Preparation Period is undertaken for enrolled participants involving medication tapering and clinical baseline assessments to confirm each participant meets enrollment criteria. As part of the Preparation Period, a detailed assessment of co-morbidities to PTSD is recorded. Participants may remain on prescribed courses of selective serotonin reuptake inhibitor (SSRI) or serotonin and norepinephrine reuptake inhibitor (SNRI) treatment. Dosages and/or frequency of administration of a prescribed SSRI or SNRI may be adjusted to fit within study parameters. Participants may be required to taper a prescribed course of medication in order to maintain eligibility within the study. The Treatment Period consists of three monthly Experimental Sessions and associated Intervening Sessions of integrative behavioral psychotherapy. The Treatment Period lasts approximately 12 weeks. Following the Treatment Period is a Follow-up Period and Study Conclusion. During the Follow-up Period and Study Conclusion, participants complete 4 weeks with no study visits, followed by a Study Conclusion visit.
# This study compares the effects of three blinded Experimental Sessions of psychotherapy in combination with flexible doses of MBDB or placebo administered as described below. Non-drug preparatory and intervening psychotherapy sessions are also included. Patient's weight is determined for dosage calculation. Initial dose is 180 mg unless this will result in a dosage of less than 1.5 mg/kg of patient weight. Initial dose thereby adjusted upward in 50 mg increments to deliver the lowest dose possible of at least 1.5 mg/kg of patient weight. Initial dose for Experimental Session 2 and 3 is cumulative dose calculated by adding the initial dose plus REMS protocol dose used the previous Experimental Session for each patient.
# Randomization occurs prior to the initiation of Experimental Session 1. Each participant is provided the next randomized number in a sequence by a blinded study monitor. Participants are then randomized, according to a computer-generated randomization schedule, 1:1:1:1 to racemic MBDB, S-MBDB, R-MBDB, or placebo. […]
# [2] = tested on: Male Sprague-Dawley rats; assay: Rat elevated zero-maze study with racemic MBDB, R-MBDB, S-MBDB and chlordiazepoxide; conditions: for Dose showing a switch to an anxiolytic effect (magnitude of the reduction in SAPs): ip
# Description: Two opposite quadrants are enclosed by Perspex walls on both the inner and the outer edges of the platform, while the remaining two opposite quadrants are open being enclosed only by a Perspex “lip”. Animals will show a preference for the closed areas, and avoidance of the open sections is assumed to stem from a rodent's natural aversion to open, exposed spaces. A reduction in the amount of activity on the open areas is considered to reflect an increase in anxiety. The ethologically-based behavior stretched attend postures (SAP) from closed to open quadrants is assessed as an index of anxiety. […] Animals
# Male Sprague-Dawley 200-250 g (Envigo UK) rats were used. Animals were group-housed (5 per cage; cage size: 40×40×20 cm) in a temperature-controlled environment (22±2° C.), under a 12 h light-dark cycle (lights on: 08:00 hours) for one week prior to testing. Food and water were freely available. Number of animals per group=5.
# The elevated 0-maze comprises a black Perspex annular platform (105 cm diameter, 10 cm width) elevated to 65 cm above ground level, divided equally into four quadrants. Two opposite quadrants are enclosed by clear red Perspex walls (27 cm high) on both the inner and outer edges of the platform, while the remaining two opposite quadrants are surrounded only by a Perspex “lip” (1 cm high) which serves as a tactile guide to animals on these open areas.
# Subjects were weighed and tail marked before being injected. After a specified pretreatment time, subjects were placed in a closed quadrant and a 5-min test period were recorded on videotape for subsequent analysis. The maze was cleaned with 5% methanol/water solution and dried thoroughly between test sessions. Behavioural measures comprise percentage time spent on the open areas (% TO) and frequency of stretched attend postures (SAP) from closed to open quadrants. Since the control groups were all treated identically with the same vehicle these were combined to increase power. The Chlordiazepoxide groups were also treated identically with the same dose so these were also combined to increase power. Animals are scored as being in the open area when all four paws were in an open quadrant and in the closed area only when all four paws have passed over the open-closed divide.
# Thirty min later at T=0, rats were individually placed in a closed arm of the zero-maze and behavior assessed by a “blind” observer using remote video monitoring over the subsequent 5 min. The animals were then removed and the maze carefully wiped with 5% methanol/water solution before the next test was begun.
# Thirty min later at T=0, rats were individually placed in a closed arm of the zero-maze and behavior was assessed by a “blind” observer using remote video monitoring over the subsequent 5 min. The animal were then removed and the maze carefully wiped with 5% methanol/water solution before the next test was begun.
# Thirty min later at T=0, rats were individually placed in a closed arm of the zero-maze and behavior was assessed by a “blind” observer using remote video monitoring over the subsequent 5 min.
# [3] = Physical stability of MBDB salts at 40° C./75% RH; assay type: physicochemical
# Description: During the screen, a single crystal Maleate 1 of sufficient size and quality was obtained from a vapor diffusion experiment with ethanol and hexane. The crystal structure is reported elsewhere but the data confirmed the anhydrous/unsolved nature of the material. […] Two new crystalline forms of MBDB Maleate were observed during the screening designated as MBDB Maleate 2 and MBDB Maleate 3 (FIG. 96, 97). Additional characterization of these samples was conducted to better understand the nature of the materials produced, as shown below. MBDB Maleate 2 was generated once from a cooling crystallization from dioxane. The proton nuclear magnetic resonance (NMR) spectrum was consistent with a monomaleate salt of MBDB and contained residual dioxane. Only a limited amount of material was recovered so the only additional characterization that could be completed was differential scanning calorimetry (DSC). The DSC thermogram appears consistent with an anhydrous/unsolvated form with a likely melt at 96° C. (FIG. 100). […] An attempt was made to reproduce Maleate 2 using the same conditions and seeds of Maleate 2. PXRD analysis of the recovered solids however was consistent with Maleate 1. MBDB Maleate 3 was isolated from an evaporation experiment involving chloroform and ethyl acetate. NMR analysis of the material was consistent with a mono-maleate salt of MBDB. Thermal analysis was consistent with an anhydrous/unsolvated material with a likely melting point of 73° C. (FIG. 101). […] No additional characterization was completed on this sample due to the limited amount of material that was recovered.
# [4] = Dynamic vapor sorption (DVS) analysis with post-DVS XRPD; assay type: physicochemical; conditions: for Hygroscopicity by DVS: 25° C., 5 to 95% RH; for Hygroscopic?: based on moisture uptake at 95% observed during DVS analysis; for Post-DVS XRPD (form change): solids after DVS analysis
# Description: DVS analysis was carried out using a TA Instruments Q5000 Dynamic Vapor Sorption analyzer. The instrument was calibrated with standard weights and a sodium bromide standard for humidity. Approximately 5-25 mg of sample was loaded into a metal-coated quartz pan for analysis. The sample was analyzed at 25° C. with a maximum equilibration time of one hour in 10% relative humidity (RH) steps from 5 to 95% RH (adsorption cycle) and from 95 to 5% RH (desorption cycle). The movement from one step to the next occurred either after satisfying the equilibrium criterion of 0.01% weight change or, if the equilibrium criterion was not met, after one hour. The percent weight change values were calculated using Microsoft Excel®.
# [5] = 5 mg/kg ip, continued anxiogenic effect
smiles,measurement,setting,value
CCC(Cc1ccc2c(c1)OCO2)NC (racemic) [racemic MBDB],Change in CAPS-5 assessment,[1],significant mean reduction in CAPS-5 assessment compared to the placebo group
same,Daytime sleepiness (ESS),[1],significant improvement in lessening daytime sleepiness
same,Clinician-rated functional impairment score (SDS),[1],significant improvement in clinician-rated functional impairment score
same,Depression (HAM-D),[1],significant improvement depression
same,Frequency of stretched attend postures (SAP),[2]; [5],reached significance
same,Frequency of stretched attend postures (SAP),[2]; 10 mg/kg ip,consistent level of SAPs similar to the 5 mg/kg
same,Frequency of stretched attend postures (SAP),[2]; 30 mg/kg ip,showed a trend toward significance
same,Dose showing a switch to an anxiolytic effect (magnitude of the reduction in SAPs),[2],30 mg/kg
"CCC(Cc1ccc2c(c1)OCO2)NC.O=C(O)CCC(=O)O (single isomer, unassigned) [Succinate 1]",Physical Stability,[3]; 40° C./75% RH overnight,Tacky solids
"CCC(Cc1ccc2c(c1)OCO2)NC.O=C(O)CCC(=O)O (single isomer, unassigned) [Succinate 2]",Physical Stability,[3]; 40° C./75% RH overnight,No change
same,Hygroscopicity by DVS,[4],possible hydrate formation at high RH conditions
same,Hygroscopic?,[4],Moderately
CCC(Cc1ccc2c(c1)OCO2)NC.O=C(O)CC(O)(CC(=O)O)C(=O)O (stereo not shown) [Citrate 1],Physical Stability,[3]; 40° C./75% RH overnight,Tacky solids
CCC(Cc1ccc2c(c1)OCO2)NC.O=C(O)/C=C/C(=O)O (stereo not shown) [Fumarate 1],Physical Stability,[3]; 40° C./75% RH overnight,No change
CCC(Cc1ccc2c(c1)OCO2)NC.O=C(O)[C@@H](O)[C@H](O)[C@H](O)[C@@H](O)C(=O)O (stereo not shown) [Galactarate 1],Physical Stability,[3]; 40° C./75% RH overnight,No change
CCC(Cc1ccc2c(c1)OCO2)NC.O=C(O)CCC(=O)O (stereo not shown) [MBDB succinate Form 2],Physical Stability,[3]; after 1 day at 40° C./75% RH,No visible change
same,Hygroscopicity by DVS,[4],moderately hygroscopic
same,Post-DVS XRPD (form change),[4],no form change
CCC(Cc1ccc2c(c1)OCO2)NC.O=C(O)CC(=O)O (stereo not shown) [Malonate 1],Physical Stability,[3]; 40° C./75% RH overnight,No change
CCC(Cc1ccc2c(c1)OCO2)NC.O=P(O)(O)O (stereo not shown) [Phosphate 1],Physical Stability,[3]; 40° C./75% RH overnight,No change
same,Physical Stability,[3]; after 1 day at 40° C./75% RH,No visible change
same,Hygroscopicity by DVS,[4],hygroscopic
same,Hygroscopic?,[4],Hygroscopic
same,Post-DVS XRPD (form change),[4],no form change
CC[C@H](Cc1ccc2c(c1)OCO2)NC [R-MBDB],Change in CAPS-5 assessment,[1],significant mean reduction in CAPS-5 assessment compared to the placebo group
same,Daytime sleepiness (ESS),[1],significant improvement in lessening daytime sleepiness
same,Clinician-rated functional impairment score (SDS),[1],significant improvement in clinician-rated functional impairment score
same,Depression (HAM-D),[1],significant improvement depression
same,Total dosage of drug to achieve significant mean reduction in CAPS-5,[1],lower total dosage of drug compared to the racemic MBDB-treated subgroup
same,Frequency of stretched attend postures (SAP),[2]; 10 mg/kg ip,consistent level of SAPs similar to the 5 mg/kg
same,Frequency of stretched attend postures (SAP),[2]; 15 mg/kg ip,reduction in the number of SAPs compared to lower doses
same,Frequency of stretched attend postures (SAP),[2]; 30 mg/kg ip,decreased the frequency of SAPs as effectively as the benzodiazepine chlordiazepoxide
same,Frequency of stretched attend postures (SAP),"[2]; 30 mg/kg ip, listed as R MBDB",significantly reduced the number of SAPs
same,Dose showing a switch to an anxiolytic effect (magnitude of the reduction in SAPs),[2],15 mg/kg
CC[C@@H](Cc1ccc2c(c1)OCO2)NC [S-MBDB],Change in CAPS-5 assessment,[1],significant mean reduction in CAPS-5 assessment compared to the placebo group
same,Daytime sleepiness (ESS),[1],significant improvement in lessening daytime sleepiness
same,Clinician-rated functional impairment score (SDS),[1],significant improvement in clinician-rated functional impairment score
same,Depression (HAM-D),[1],significant improvement depression
same,Adverse anxiogenic incidents,[1]; vs placebo-treated controls,without a significant increase in adverse anxiogenic incidents
same,Total dosage of drug to achieve significant mean reduction in CAPS-5,[1],lower total dosage of drug compared to the racemic MBDB-treated subgroup
same,Frequency of stretched attend postures (SAP),[2]; [5],reached significance
same,Frequency of stretched attend postures (SAP),[2]; 10 mg/kg ip,rapid reduction in total SAPs
same,Frequency of stretched attend postures (SAP),[2]; 15 mg/kg ip,reduction in the number of SAPs compared to lower doses
same,Frequency of stretched attend postures (SAP),[2]; 30 mg/kg ip,decreased the frequency of SAPs as effectively as the benzodiazepine chlordiazepoxide
same,Magnitude of the reduction in SAPs among MBDB forms,[2]; 30 mg/kg ip,greatest
same,Frequency of stretched attend postures (SAP),"[2]; 30 mg/kg ip, listed as S MBDB",significantly reduced the number of SAPs
same,Dose showing a switch to an anxiolytic effect (magnitude of the reduction in SAPs),[2],10 mg/kg
CCC(Cc1ccc2c(c1)OCO2)NC.O=S(=O)(O)O (stereo not shown) [Sulfate 1],Physical Stability,[3]; 40° C./75% RH overnight,Deliquesced
CCC(Cc1ccc2c(c1)OCO2)NC.Cc1ccc(S(=O)(=O)O)cc1 (stereo not shown) [Tosylate 1],Physical Stability,[3]; 40° C./75% RH overnight,No change
